Test results from patent US20160024051A1, “SALTS AND SOLID FORMS OF ISOQUINOLINONES AND COMPOSITION COMPRISING AND METHODS OF USING THE SAME” (INFINITY PHARMACEUTICALS, INC., priority 2013, published 2016).

Tests used:
[1] = Storage at 25° C./93% RH for 1 week, re-analysis by XRPD/HPLC; assay type: physicochemical; details: for stability on storage at 25° C./93% RH: 1 week
[2] = Storage at 40° C./75% RH (elevated humidity) for 1 week, re-analysis by XRPD/HPLC
Method: The crystalline solids were filtered, dried at ambient conditions, and stored at 40° C./75% RH for 1 week and analyzed by ^1H NMR/IC.
(§1) Samples from the screen using amorphous free base Compound 1 were analysed by ^1H-NMR and DSC, and re-analysis by XRPD was also carried out after drying at 50° C./vacuum and storage at 40° C./75% RH (the same sample was dried and stored at elevated humidity).

[3] = Gravimetric vapour sorption (GVS); assay type: physicochemical
Method: Sorption isotherms were obtained using a Hiden IGASorp moisture sorption analyser, controlled by CFRSorp software. The sample temperature was maintained at 25° C. by a Huber re-circulating water bath. The humidity was controlled by mixing streams of dry and wet nitrogen, with a total flow rate of 250 ml/min. The relative humidity (RH) was measured by a calibrated Vaisala RH probe (dynamic range of 0-95% RH), located near the sample. The weight change, (mass relaxation) of the sample as a function of % RH was constantly monitored by the microbalance (accuracy ±0.001 mg). Typically 10-20 mg of sample was placed in a tared mesh stainless steel basket under ambient conditions. The sample was loaded and unloaded at 40% RH and 25° C. (typical room conditions). A moisture sorption isotherm was performed as outlined below (2 scans giving 1 complete cycle). The standard isotherm was performed at 25° C. at 10% RH intervals over a 0-90% RH range.
The software uses a least squares minimisation procedure together with a model of the mass relaxation, to predict an asymptotic value. The measured mass relaxation value must be within 5% of that predicted by the software, before the next % RH value is selected. The minimum equilibration time was set to 1 hour and the maximum to 4 hours. The sample was recovered after completion of the isotherm and re-analysed by XRPD.

[4] = Thermodynamic aqueous solubility; assay type: physicochemical; details: at pH 6.85
[5] = Polymorphism study: maturation (temperature cycling RT to 50° C.) in solvents, XRPD; assay type: physicochemical; details: three days; listed as hydrate Form 1 of free base Compound 1
Method: One of 21 solvents was added to each vial in a number of aliquots (up to 30 volumes), with shaking. All the samples were then placed under maturation between RT to 50° C. (4 hours at each temperature) for 3 days. After maturation the samples were analysed by XRPD. Clear solutions were cooled to −20° C. (freezer). If no precipitation occurred samples were evaporated at RT.
Samples were placed under maturation between RT-50° C. (4 hours cycle) for 3 days. After maturation the samples were analyzed by XRPD. Clear solutions were then cooled to −20° C. (freezer). If no precipitation occurred, samples were evaporated at RT.
The corresponding solvents and solvent mixtures were added in portions of (a total of) 5, 10, 20, and 30 volumes at 50° C., with shaking, aiming for clear solutions. After each addition, the vials were allowed to shake for 20 minutes, after which observations were made. Solutions were allowed to evaporate, whereas slurries were set for 8 hour temperature cycling maturation, between RT and 50° C., for 5 days.
The oils obtained by solvent evaporation were used for the maturation screen. Anhydrous solvents (5 volumes; 100 μL) were used in order to minimise the amount of water present. Any solutions were allowed to slowly evaporate, whereas slurries were set for 8 hour temperature cycling maturation, between RT and 50° C. […] These were matured for a further 24 hours before performing XRPD analysis.
The selected solvents and solvent mixtures (5 to 20 volumes) were added with stirring. Any solutions were allowed to slowly evaporate, whereas slurries were set for 8 hour temperature cycling maturation, between RT and 50° C., for 2 days.
Crystals were ground in order to analyse them by XRPD. Suspensions were set for temperature cycling for a total of five days after which time XRPD analysis was carried out.

[6] = Stability of Hydrate Form 2: maturation in water or acetic acid: water 1:3 at constant temperature; assay type: physicochemical; details: 40 hours maturation
Method: Both solids obtained from maturation at 25° C.

[7] = Drying at 50° C./vacuum, re-analysis by XRPD; assay type: physicochemical; details: screening sample from H2O
Method: as §1

CC(=O)O.COc1cc(-c2cccc3cc([C@H](C)Nc4nc(N)ncc4C#N)n(-c4ccccc4)c(=O)c23)ccn1.COc1cc(-c2cccc3cc([C@H](C)Nc4nc(N)ncc4C#N)n(-c4ccccc4)c(=O)c23)ccn1 [Batch 2 of Form 6]
Stability at 25° C./93% RH ([1]; after 1 week, XRPD): Very slight changes
Stability at 40° C./75% RH ([2]; after 1 week, XRPD): Very slight changes

COc1cc(-c2cccc3cc([C@H](C)Nc4nc(N)ncc4C#N)n(-c4ccccc4)c(=O)c23)ccn1 [Form 1 of the free base of Compound 1]
stability on storage at 25° C./93% RH [1]: converts to Form 3 of the free base of Compound 1
stability on storage at 25° C./93% RH ([1]; listed as Free base Form 1): conversion to Form 3
Stability at 25° C./93% RH ([1]; form): Conversion to Form 3 (FIG. 31)
GVS: moisture on loading [3]: 0.7 % w/w
GVS behaviour (hydration / desolvation) ([3]; listed as Free base Form 1): hydrates to a higher hydrate above 80% RH
GVS: uptake between 80-90% RH ([3]; with hysteresis on desorption): 4.0 % w/w
Thermodynamic aqueous solubility [4]: 4 µg/mL
XRPD form after maturation in acetic acid: water 1:1 [5]: Form 6
Stability at 40° C./75% RH ([2]; 1 week, form): No changes in form after 1 week

COc1cc(-c2cccc3cc([C@H](C)Nc4nc(N)ncc4C#N)n(-c4ccccc4)c(=O)c23)ccn1.O [Form 2 of free base of Compound 1]
XRPD ([6]; Acetic acid:water 1:3, 25° C.): Hydrate Form 2
XRPD ([6]; Water, 25° C.): Hydrate Form 2
XRPD ([6]; Water, 90° C.): Hydrate Form 2

COc1cc(-c2cccc3cc([C@H](C)Nc4nc(N)ncc4C#N)n(-c4ccccc4)c(=O)c23)ccn1 [Form 4 of the free base of Compound 1]
GVS behaviour (hydration / desolvation) ([3]; text statements, listed as Form 4): hydrates above 80% RH, but reversibly dehydrates back at 40% RH
XRPD after drying at 50° C./vacuum [7]: No changes
XRPD after Storage at 40° C./75% RH ([2]; screening sample from H2O, after drying): No changes
